How the values were obtained:
[1] = system: PC3 (prostate); experiment: In vitro cytotoxic activity assay (MTT), PC3; format: cell-based; details: Homo sapiens, Prostate cell; PC3 (prostate) cells, exposed for 96 hours; read-out: IC50, 50% inhibition of cell proliferation
Procedure: (§1) Compounds 1-15 were screened for their in vitro cytotoxic activity utilizing a 3-(4,5-dimethyl-thiazol-2-yl)-2,5-diphenyltetrazolium bromide (MTT) assay against selected cancer human cell lines consisting of PC3 (prostate), HCT116 (colon), A375 (melanoma), H1299 (lung), MIAPaCa-2 (pancreas), HL60 (leukemia), MCF7 (breast), MDA-MB-231 (breast) (T. Mosmann, J. Immunol. Meth., 1983, 65, 55-63). The cells were cultured at 37° C. in RMPI1640 medium supplemented with 10% fetal bovine serum, 50 IU/mL penicillin, and 50 μg/mL streptomycin in a 5% CO2 incubator. All cells were sub-cultured 3 times/week by trypsinisation. Viable cells were seeded and allowed to adhere for 12 h before a test drug was added in 96-well plates at an initial density of 1.0×10^5 cells/mL. Tumour cell lines were separately exposed to various concentrations of the tested compounds followed by incubation at a temperature of 37° C. during 96 h inside a medium of fresh RMPI 1640. Cells were subsequently incubated at 37° C. using MTT at 0.5 mg/mL during 4 h. After removal of supernatant, formazan crystals were dissolved in isopropanol and the optical density was measured at 570 nm. CX-4945 was used as a positive control.

[2] = system: HCT116 (colon); experiment: In vitro cytotoxic activity assay (MTT), HCT116; format: cell-based; details: Homo sapiens, HCT-116; HCT116 (colon) cells, exposed for 96 hours; read-out: IC50, 50% inhibition of cell proliferation
Procedure: as §1

[3] = system: A375 (melanoma); experiment: In vitro cytotoxic activity assay (MTT), A375; format: cell-based; details: Homo sapiens, A-375; A375 (melanoma) cells, exposed for 96 hours; read-out: IC50, 50% inhibition of cell proliferation
Procedure: as §1

[4] = system: H1299 (lung); experiment: In vitro cytotoxic activity assay (MTT), H1299; format: cell-based; details: Homo sapiens, NCI-H1299; H1299 (lung) cells, exposed for 96 hours; read-out: IC50, 50% inhibition of cell proliferation
Procedure: as §1

[5] = system: MIAPaCa-2 (pancreas); experiment: In vitro cytotoxic activity assay (MTT), MIAPaCa-2; format: cell-based; details: Homo sapiens, MIA PaCa-2; MIAPaCa-2 (pancreas) cells, exposed for 96 hours; read-out: IC50, 50% inhibition of cell proliferation
Procedure: as §1

[6] = system: HL60 (leukemia); experiment: In vitro cytotoxic activity assay (MTT), HL60; format: cell-based; details: Homo sapiens, HL-60; HL60 (leukemia) cells, exposed for 96 hours; read-out: IC50, 50% inhibition of cell proliferation
Procedure: as §1

[7] = system: MCF7 (breast); experiment: In vitro cytotoxic activity assay (MTT), MCF7; format: cell-based; details: Homo sapiens; MCF7 (breast) cells, exposed for 96 hours; read-out: IC50, 50% inhibition of cell proliferation
Procedure: as §1

[8] = system: MDA-MB-231 (breast); experiment: In vitro cytotoxic activity assay (MTT), MDA-MB-231; format: cell-based; details: Homo sapiens; MDA-MB-231 (breast) cells, exposed for 96 hours; read-out: IC50, 50% inhibition of cell proliferation
Procedure: as §1

[9] = biological target: T1, recombinant human CK2 (RRββ-holoenzyme) (Homo sapiens, UniProt P68400); experiment: CK2 Kinase Assay (33P-ATP, filter plate); format: biochemical; details: final ATP concentration 15 μM, 10 min at 30° C., eight concentrations; read-out: protein kinase CK2 IC50
T1 construct: purchased Millipore
Procedure: CK2 Kinase Assay was conducted using the protocol as described in Pierre F. et al; J. Med. Chem. 2011, 54, 635-654. The tested compounds in aqueous solution were added at a volume of 10 μL to a reaction mixture comprising 10 μL of assay dilution buffer (ADB; 20 mM MOPS, pH 7.2, 25 mM β-glycerol phosphate, 5 mM EGTA, 1 mM sodium orthovanadate, and 1 mM dithiothreitol), 10 μL of substrate peptide (RRRDDDSDDD, dissolved in ADB at a concentration of 1 mM), 10 μL of recombinant human CK2 (RRββ-holoenzyme, 25 ng dissolved in ADB; Millipore). Reactions were initiated by the addition of 10 μL of ATP solution (90% 75 mMMgCl2, 75 μM ATP (final ATP concentration:15 μM) dissolved in ADB; 10% [γ-33P] ATP (stock 1 mCi/100 μL; 3000 Ci/mmol (Perkin-Elmer) and maintained for 10 min at 30° C. The reactions were quenched with 100 μL of 0.75% phosphoric acid and then transferred to and filtered through a phosphor cellulose filter plate (Millipore). After washing each well five times with 0.75% phosphoric acid, the plate was dried under vacuum for 5 min and, following the addition of 15 μL of scintillation fluid to each well, the residual radioactivity was measured using a Wallac luminescence counter. The IC50 values were derived from eight concentrations of test inhibitors.

T1 sequence (P68400 whole entry): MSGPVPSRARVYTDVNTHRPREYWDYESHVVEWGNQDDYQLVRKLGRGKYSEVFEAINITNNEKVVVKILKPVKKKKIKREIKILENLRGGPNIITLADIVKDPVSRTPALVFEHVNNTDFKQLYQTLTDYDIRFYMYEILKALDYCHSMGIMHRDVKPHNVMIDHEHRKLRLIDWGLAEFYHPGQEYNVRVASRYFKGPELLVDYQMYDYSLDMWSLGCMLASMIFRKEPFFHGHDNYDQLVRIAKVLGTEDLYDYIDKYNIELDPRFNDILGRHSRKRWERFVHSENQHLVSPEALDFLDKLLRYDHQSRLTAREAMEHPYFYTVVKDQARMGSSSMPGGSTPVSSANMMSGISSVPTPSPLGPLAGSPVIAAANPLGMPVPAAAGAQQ
T1 sequence (P67870 whole entry partner): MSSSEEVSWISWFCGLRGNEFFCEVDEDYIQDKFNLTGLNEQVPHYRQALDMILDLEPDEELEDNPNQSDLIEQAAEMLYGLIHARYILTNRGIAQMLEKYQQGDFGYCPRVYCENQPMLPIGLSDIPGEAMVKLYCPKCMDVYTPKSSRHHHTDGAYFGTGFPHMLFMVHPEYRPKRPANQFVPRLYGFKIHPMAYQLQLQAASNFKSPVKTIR

- IC50 [9]: 165 nM
SMILES: O=C(O)c1cc2c([nH]c3cc(O)ccc32)c(Nc2cccc(Cl)c2)n1 [Compound 1, 1-((3-chlorophenyl)amino)-7-hydroxy-9H-pyrido[3,4-b]indole-3-carboxylic Acid]
- IC50 [1]: 1200 nM
- IC50 [2]: 1600 nM
- IC50 [3]: 5.7 µM
- IC50 [4]: 1800 nM
- IC50 [5]: 3.3 µM
- IC50 [6]: 4.1 µM
- IC50 [7]: 3.2 µM
- IC50 [8]: 2500 nM

— US11897881B1, “Substituted pyrido[3,4-b]indole-3-carboxylic acids as CK2 inhibitors” (KING FAISAL UNIVERSITY, priority 2023, dated 2024)
